In patent US4983620A, “Pharmacologically active alkylthiobenzimidazole derivatives and process for the preparation thereof” (Dompe Farmaceutici S.p.A., priority 1988, dated 1991):
Counter-ions that a name gives are not always drawn.

How the values were obtained:
[1] = Acute toxicity (LD50) on mice; details: mouse, in vivo, ip
Procedure: The Letal Dose50 (LD50) was evaluated on mice using Swiss Nos (Nossan, Correzzana, Milano) mice weighing 18-20 g each. The animals, divided into groups of 10 animals each (5M+5F), were on an empty stomach for 18 hrs, with water ad libitum, and kept in cages with a grid floor. The compounds (I) were dissolved in water or suspended in 0.5% carboxymethylcellulose and intraperitioneally administered to the animals (10 ml/kg). The mortality occurred in the tested animals within the following 6 hours was noted down. At the expiry of the 6th hour, the animals were allowed to eat up to the end of the experimentation which lasted 14 days. During this period all the toxic symptoms and the mortality occurring were noted.
The animals which died during the test period and those which were sacrificed at the end of the same, underwent autopsy for a macroscopic examination of their main organs. The experimental data were statistically compared with the X^2 method and LD50 was extrapolated by the `probit` method.

[2] = system: mortality induced by histamine; assay: Effect on the mortality induced by histamine; type: in vivo, male albino guinea pigs (Dunkin-Hartley); details: Cavia porcellus, ip, 30 minutes before 1.25 mg/kg i.v. histamine dihydrochloride; guinea pigs; read-out: Histamine mortality ID50
Procedure: The method described by Romer D. et al., (Med. Welt 17, 791, 1966) was followed and the tests were carried out on male albino guinea pigs (Dunkin-Hartley), weighing 350-450 g, which were kept in cages with a grid floor, on an empty stomach for 24 hrs and with water ad libitum.
The compounds (I) were dissolved in saline solution and intraperitoneally administered to the animals: 30 minutes later the same animals were intravenously treated with 1.25 mg/kg of histamine dihydrochloride in saline solution.
It was evaluated ID50 which corresponds to the amount of the compound able to inhibit 50% of the mortality induced by histamine: the estimation of ID50 was carried out by applying the `probit` method (Finney D. J. "Statistical Method in Biological Assay" p. 512, 1957).

[3] = biological target: T1, H1 histaminergic receptors (Rattus norvegicus, UniProt P31390); assay: Affinity towards H1 histaminergic receptors ([3H]Mepyramine displacement, rat brain homogenates); details: 2 nM [3H]Mepyramine, 25° C., 15 minutes, pH 7.5, read-out: H1-receptor binding IC50
T1 construct: in homogenates of rat brain; from tissue; host or cells: rat whole brain homogenate
Procedure: The affinity of the examined compounds towards H1 histaminergic receptors as evaluated by displacement curves which were obtained of different concentrations, against [^3 H]
The incubation was performed at 25° C. for 15 minutes, in a final volume of 1 ml of […] Na/K phosphate buffer, pH 7.5, in the presence of 2 nM [^3 H] Mepyramina and 1.5 mg of cerebral protein. Aspecific binding was defined as the residual radioactivity bound in the presence of […] Clemastine. The test compounds were dissolved in phosphate buffer or dimethylsulfoxide (DMSO), the final concentration of DMSO was 0.5%. Incubation was terminated by filtration through glass fiber GF/B filters pre-soaked with 0.1% polyethylenimine (PEI). The radioactivity trapped by filters was counted by liquid scintillation.

[4] = Effect on the sleeping time; type: in vivo; details: 25 mg/kg i.p.
[5] = system: mortality induced by compound 48/80; assay: Effect on the mortality induced by compound 48/80; type: in vivo, Sprague Dawley Nos male rats; details: Rattus norvegicus, ip, 4 h; i.p., 30 minutes before 2 mg/kg i.v. compound 48/80; rats; read-out: Compound 48/80 mortality ID50
Procedure: The tests were carried out according to the method described by C. J. E. Niemergeers et al., Arch. Int. Pharmacodyn., 234,164,-1978. Sprague Dawley Nos male rats (Nossan, Correzzana, Milano) weighing 140-150 g, divided into groups of 10 animals each, on an empty stomach for 24 hrs and with water ad libitum, were kept in cages with a grid floor, then treated intravenously with 2 mg/kg of compound 48/80 (1 ml/rat). The compound (I) or the carrier were dissolved in water (5 ml/kg) and intraperitoneally administered to the animals 30 minutes before the treatment with the compound 48/80. The mortality occurred in the group of treated animals during the first 4 hours following the treatment was noted down. The results were expressed as the number of animals dead with respect to the number of treated animals.
The experimental data were submitted to the variance analysis and to the subsequent multiple comparisons according to Dunnett (D. J. Finney, "Statistical Method in Biological Assay", Ed. L. Griffin and Co., Ltd., pg. 152-157, Edition Ames, Iowa, 1971).

T1 sequence (P31390 whole entry): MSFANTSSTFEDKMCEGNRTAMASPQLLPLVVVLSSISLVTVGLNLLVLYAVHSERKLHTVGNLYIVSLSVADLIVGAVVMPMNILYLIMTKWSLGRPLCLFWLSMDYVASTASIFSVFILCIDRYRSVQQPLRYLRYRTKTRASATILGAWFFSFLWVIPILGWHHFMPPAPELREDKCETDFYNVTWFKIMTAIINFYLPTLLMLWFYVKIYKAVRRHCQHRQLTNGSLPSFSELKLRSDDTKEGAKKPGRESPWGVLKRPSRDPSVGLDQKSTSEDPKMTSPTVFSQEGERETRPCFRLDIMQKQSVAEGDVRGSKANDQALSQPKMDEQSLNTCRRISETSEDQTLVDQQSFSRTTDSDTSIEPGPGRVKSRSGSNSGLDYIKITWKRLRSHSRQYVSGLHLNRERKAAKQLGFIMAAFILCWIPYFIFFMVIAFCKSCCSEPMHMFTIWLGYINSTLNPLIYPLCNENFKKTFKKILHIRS

Structure (SMILES) | LD50 at 336 h [1] | ED50 [2] | IC50 [3] | Sleeping time % increase [4] | ED50 [5]
CCOCCn1c(SCCN(C)C)nc2ccccc21 [Example 3, 1-(2-Ethoxyethyl)-2-(2-dimethylaminoethylthio)benzimidazole. 2 HCl] | > 100 mg/kg | 0.0109 mg/kg | 2.4 nM | 5% | 0.008 mg/kg
CCOCCn1c(SCC(C)N(C)C)nc2ccccc21 (centres unmarked) [Example 5, 1-(2-Ethoxyethyl)-2-(2-dimethylaminoisopropylthio)benzimidazole] | ~100 mg/kg | 0.05 mg/kg | 6.1 nM | 10% | 0.009 mg/kg
CC(C)(C)c1ccc(C(O)CCCN2CCC(C(O)(c3ccccc3)c3ccccc3)CC2)cc1 (centres unmarked) [Terfenadine, reference compound] | > 100 mg/kg | 0.735 mg/kg |  | 8% | 1.99 mg/kg
